Laboratory results: patent US11629144B2, “Crystal form of monomethanesulfonate of deuterated 3-(4,5-substituted aminopyrimidine)phenyl compound and preparation method therefor” (NANJING CHUANGTE PHARMACEUTICAL TECHNOLOGY CO., LTD., priority 2018, dated 2023)
“Also recorded” adds a separate entry of the source.

Tests used:
Format in all cases: physicochemical
[1] = Stability differential scanning calorimetry (DSC) test; conditions: rate of temperature rise 10.00° C./min
Experimental: 1. Stability Differential Scanning Calorimetry (DSC) Test
Instrument: NETZSCH DSC 204 type differential thermal analyzer
Rate of temperature rise: 10.00° C./min

[2] = Crystal influence factor test (high temperature, high humidity, illumination, 15 days); conditions: high-humidity and illumination conditions for 15 days
Source text: 2. Crystal Influence Factor Test

Accelerated lofting test = experiment: Accelerated lofting test; set-up: Maximum individual impurity / Loss on drying: unit not given here; conditions: 40±2° C., RH 75%±5%; for Loss on drying: limit ≤1.0; for Maximum individual impurity: limit ≤2.50; for Total impurity: limit ≤4.0%; for Methanesulfonic acid (%): limit ≤15.0-15.8%; for Content (%): should not be less than 78.0%
Experimental: 3. Accelerated Lofting Test
A sample of the crystal form B of the monomethanesulfonate of the compound shown in formula I was placed in a petri dish and was sampled and tested at 0 hour, 1 month, 2 months, 3 months, and 6 months respectively at a temperature of 40±2° C. and a relative humidity of 75%±5%, with the results shown in Table 1: […]

[3] = Long-term lofting experiments; conditions: 25±5° C., RH 60%±10%; for Loss on diying: limit ≤1.0; for Maximum individual impurity: limit ≤2.50; for Total impurity: limit ≤4.0%; for Methanesulfonic acid (%): limit ≤15.0-15.8%; for Content (%): should not be less than 78.0%
Experimental: 4. Long-Term Lofting Experiments
A sample of the crystal form B of the monomethanesulfonate of the compound shown in formula I was placed in a petri dish under the conditions of the temperature being 25±5° C. and the relative humidity being 60%±10% and was sampled and tested at 0 hour, 3 months, and 6 months respectively, with the results shown in Table 2: […]

[2H]C([2H])([2H])N(C)CCN(C)c1cc(OC)c(Nc2nccc(-c3cn4c5c(cccc35)CCC4)n2)cc1NC(=O)C=C [crystal form A]
DSC peak (stability of heat exchange range) [1]: a single peak value is observed | Crystal transformation (X-ray diffraction pattern) [2]: can be converted into the crystal form B of the monomethanesulfonate under the high-temperature or high-humidity condition; also recorded: converted to the crystal form B of the monomethanesulfonate at high temperature and high humidity

[2H]C([2H])([2H])N(C)CCN(C)c1cc(OC)c(Nc2nccc(-c3cn4c5c(cccc35)CCC4)n2)cc1NC(=O)C=C [crystal form B]
Loss on drying (Accelerated lofting test; 0 month): 0.08 | Maximum individual impurity (Accelerated lofting test; 0 month): 1.62 | Total impurity (Accelerated lofting test; 0 month): 2.55% | Methanesulfonic acid (%) (Accelerated lofting test; 0 month): 15.5% | Content (%) (Accelerated lofting test; 0 month): 80.5% | Loss on drying (Accelerated lofting test; 1 month): 0.03 | Maximum individual impurity (Accelerated lofting test; 1 month): 1.87 | Total impurity (Accelerated lofting test; 1 month): 3.12% | Methanesulfonic acid (%) (Accelerated lofting test; 1 month): 15.2% | Content (%) (Accelerated lofting test; 1 month): 82.2% | Loss on drying (Accelerated lofting test; 2 months): 0.03 | Maximum individual impurity (Accelerated lofting test; 2 months): 1.42 | Total impurity (Accelerated lofting test; 2 months): 2.72% | Methanesulfonic acid (%) (Accelerated lofting test; 2 months): 15.4% | Content (%) (Accelerated lofting test; 2 months): 82.3% | Loss on drying (Accelerated lofting test; 3 months): 0.03 | Maximum individual impurity (Accelerated lofting test; 3 months): 1.62 | Total impurity (Accelerated lofting test; 3 months): 2.72% | Methanesulfonic acid (%) (Accelerated lofting test; 3 months): 15.4% | Content (%) (Accelerated lofting test; 3 months): 79.5% | Crystal form by X-ray powder diffraction pattern compared with before the experiments (Accelerated lofting test; 6 months): the crystal form was not changed | Loss on drying (Accelerated lofting test; 6 months): 0.14 | Maximum individual impurity (Accelerated lofting test; 6 months): 1.61 | Total impurity (Accelerated lofting test; 6 months): 2.74% | Methanesulfonic acid (%) (Accelerated lofting test; 6 months): 15.4% | Content (%) (Accelerated lofting test; 6 months): 80.8% | Change of all investigation items (Accelerated lofting test; up to 6 months): all investigation items have no obvious change | Loss on diying ([3]; 0 month): 0.08 | Maximum individual impurity ([3]; 0 month): 1.62 | Total impurity ([3]; 0 month): 2.55% | Methanesulfonic acid (%) ([3]; 0 month): 15.5% | Content (%) ([3]; 0 month): 80.5% | Loss on diying ([3]; 3 months): 0.08 | Maximum individual impurity ([3]; 3 months): 1.65 | Total impurity ([3]; 3 months): 2.78% | Methanesulfonic acid (%) ([3]; 3 months): 15.4% | Content (%) ([3]; 3 months): 80.0% | Crystal form by X-ray powder diffraction pattern compared with before the experiments ([3]; 6 months): the crystal form was not changed | Loss on diying ([3]; 6 months): 0.6 | Maximum individual impurity ([3]; 6 months): 1.48 | Total impurity ([3]; 6 months): 2.50% | Methanesulfonic acid (%) ([3]; 6 months): 15.4% | Content (%) ([3]; 6 months): 82.3% | Change of all investigation items ([3]; up to 6 months): all investigation items have no obvious change
